We go through 17 compounds from patent US20040019043A1, “Thiomolybdate analogues and uses thereof” (priority 2002, published 2004).

Marks after values point to notes of the source that are not given here.

Series [1] in a line: Chemical Stability Data for Analogs.
The subject of series [2] is Lewis Lung carcinoma (3LL) cells. The series is described as follows: In Vivo 3LL Lewis Lung Carcinoma: Primary Tumor Growth. The following applies: 3LL s.c. in female C57/BL mice; TM and CHTM 50 mg/kg po by gavage from day after inoculation; cyclophosphamide 170 mg/kg s.c. every 6 days from day 3. Here is the method:
The tumor model used was 3LL JF in C57BL/6 mice. […] The test compound is administered daily for 11-25 days.
(§1) Animals are followed by weighing, palpation and measurement of tumor size. […] A positive control compound, for example cyclophosphamide at 170 mg/kg/injection is given every 6 days. Results computed include mean animal weight, tumor size, tumor weight and survival time. For confirmed therapeutic activity, the test composition should be tested in two multi-dose assays. Female C57/BL mice were inoculated with 1×10^6 Lewis Lung carcinoma (3LL) cells subcutaneously in the middle of the back. […] Cyclophosphamide (170 mg/kg given every 6 days subcutaneously beginning on day 3 after tumor cell inoculation) was used as a control. Tumor volumes and animal weights were measured 2×/week and the animals euthanized when the volume of the tumors in the control group reached an average of 2000 mm^3. The ratio (T/C) of the tumor volumes in the treated group (T) to the control group (C) were determined. Terminal cardiac bleeds were obtained and analyzed for red blood cell concentration (hematocrit, HCT).

Series [3] in a line: Animal weight and hematocrit in 3LL tumor-bearing mice. Here is the method:
as §1

Setting [4] is: After 10 days, Oven to room conditions.

Consider `C[N+]1(C)CCCC1.C[N+]1(C)CCCC1.[S]=[Mo](=[S])([S-])[S-]` [1,1-dimethylpyrrolidinium, Tetrathiomolybdate, bis(1,1-dimethylpyrrolidinium)], for which, in series [1] (setting [4]), the “% remaining” value worked out at 70%. Consider `Cc1cc[n+](C)cc1` [1,4-dimethylpyridinium, Tetrathiomolybdate, bis(1,4-dimethylpyridinium)], for which the “% remaining” value in series [1] (setting [4]) was 32%. In the case of `CCn1cc[n+](C)c1.CCn1cc[n+](C)c1.[S]=[Mo](=[S])([S-])[S-]` [1-ethyl-3-methyl-1H-imidazolium, Tetrathiomolybdate, bis(1-ethyl-3-methyl-1H-imidazolium)], the “% remaining” value in series [1] (setting [4]) came to 75%. In the case of `[NH4+].[NH4+].[SH-].[SH-].[S]=[Mo]=[S]` [Ammonium, ammonium tetrathiomolybdate], in series [1] (*9 days, different study, Oven to room conditions), the “% remaining” value is on record as “*48%”. Besides, in series [2], the “T/C (ratio of tumor volumes in treated group to control group)” value was found to be 0.59. In series [3] (mouse, in vivo), the “HCT (hematocrit, red blood cell concentration)” value (from here on “HCT”) is on record as 35% and the “MOUSE WEIGHT % of initial” value was determined as 93%*. For `C[N+](C)(C)CCO` [Choline, Tetrathiomolybdate, bis(choline)], the “% remaining” value in series [1] (setting [4]) worked out at 62%. Also, in series [3] (mouse, in vivo), the “HCT” value amounted to 35% and the “MOUSE WEIGHT % of initial” value is given as 103%.

For `O=P1(N(CCCl)CCCl)NCCCO1` (stereo not shown) [Cyclophosphamide], the “T/C (ratio of tumor volumes in treated group to control group)” value in series [2] is given as 0.74. In addition, the “MOUSE WEIGHT % of initial” value in series [3] (3LL tumor-bearing female C57/BL mice, same dosing as T/C) is reported as 105%. In addition, the “HCT” value in series [3] (terminal cardiac bleeds, normal is 45%) turned out to be 40%. On to `CC[N+](C)(CC)CC.CC[N+](C)(CC)CC.[S]=[Mo](=[S])([S-])[S-]` [Methyltriethylammonium, Tetrathiomolybdate, bis(triethylmethyl ammonium)], for which the “% remaining” value in series [1] (setting [4]) is on record as 63%.

As to `CC[N+](CC)(CC)c1ccccc1.CC[N+](CC)(CC)c1ccccc1.[S]=[Mo](=[S])([S-])[S-]` [Triethylphenylammonium, Tetrathiomolybdate, bis(triethylphenyl ammonium)], the “% remaining” value in series [1] (setting [4]) turned out to be 76%. In the case of `C[N+](C)(C)Cc1ccccc1.C[N+](C)(C)Cc1ccccc1.[S]=[Mo](=[S])([S-])[S-]` [Trimethylbenzylammonium, Tetrathiomolybdate, bis(benzyltrimethylammonium)], in series [1] (setting [4]), the “% remaining” value stood at 94%. Regarding `C[N+](C)(C)c1ccccc1.C[N+](C)(C)c1ccccc1.[S]=[Mo](=[S])([S-])[S-]` [Trimethylphenylammonium, Tetrathiomolybdate, bis(phenyltrimethylammonium)], the “% remaining” value in series [1] (7 days, 74-77% RH, RT) came out at 98%; in series [1] (setting [4]) it was 85%.

As to `C[N+](C)(Cc1ccccc1)c1ccccc1.C[N+](C)(Cc1ccccc1)c1ccccc1.[S]=[Mo](=[S])([S-])[S-]` [bis(benzylphenyldimethylammonium), Tetrathiomolybdate, bis(benzylphenyldimethylammonium)], the “% remaining” value in series [1] (7 days, 74-77% RH, RT) was 45%. `C[N+](C)(C)CC1CC1.C[N+](C)(C)CC1CC1.[S]=[Mo](=[S])([S-])[S-]` [bis(cyclopropylmethyltrimethylammonium), Tetrathiomolybdate, bis(cyclopropylmethyltrimethyl ammonium)]: the “% remaining” value in series [1] (7 days, 74-77% RH, RT) came out at 86%. Consider `C=C[N+](C)(C)C.C=C[N+](C)(C)C.[S]=[Mo](=[S])([S-])[S-]` [bis(vinyltrimenthyammonium), Tetrathiomolybdate, bis(vinyltrimethyl ammonium)], for which the “% remaining” value in series [1] (7 days, 74-77% RH, RT) is listed as 72%. Consider `C[N+](C)(C)CCCC[N+](C)(C)C` [butane-1,4-bis(trimethylammonium)], for which the “% remaining” value in series [1] (setting [4]) is listed as 40%.

In the case of `C[N+](C)(C)CCCCCC[N+](C)(C)C.[S]=[Mo](=[S])([S-])[S-]` [hexane-1,6-bis(trimethylammonium), Tetrathiomolybdate, hexane-1,6-bis(trimethylammonium)], the “% remaining” value in series [1] (7 days, 74-77% RH, RT) is recorded as 94%.

As for `C[N+](C)(C)CCCCC[N+](C)(C)C` [pentane-1,5-bis(trimethylammonium), Tetrathiomolybdate, pentane-1,5-bis(trimethylammonium)], in series [1] (setting [4]), the “% remaining” value is 86%. On to Ethylenebis(trimethylammonium), for which, in series [1] (setting [4]), the “% remaining” value is listed as 40%.
